Measurements taken from US20240108684A1, “DOSING REGIMENS FOR TREATMENT OF FUNGAL INFECTIONS” (priority 2016, published 2024).
≈ marks a conversion by molar mass, not a printed value. Where two headings read alike, the source gives them in different places. *1 amine or outer side, *2 acyl side, *3 side chain or, on linkers, in order; H or OH if unused. Where a SMILES comes first, the peptide text is derived from it. Bridges are numbered along the chain shown (N, C = ends). [ ]: non-standard residue; d: D form. The star is where a group is joined. hTyr(3S-OH,4S-OH,3'-OSO3H) = N[C@H](C(=O)O)[C@H](O)[C@@H](O)c1ccc(O)c(OS(=O)(=O)O)c1; Orn(4R-OH,5R-OH) = O=C([C@H](C[C@@H](O)[C@@H](O)N[*:3])N[*:1])[*:2]; Pro(3S-OH,4S-Me) = C[C@H]1CN[C@H](C(=O)O)[C@H]1O; X1 = CCCCCOc1ccc(-c2cc(-c3ccc(C(=O)*)cc3)no2)cc1; Gln(3R-OH) = NC(=O)C[C@@H](O)[C@H](N)C(=O)O; Hyp = O=C(O)[C@@H]1C[C@@H](O)CN1

Experiments:
[1] = system: azole-resistant C. albicans R357 strain; assay: MIC and CLSI susceptibility, azole-resistant C. albicans R357; format: cell-based, Candida albicans; settings: for Susceptibility of strain R357 in words: C. albicans R357 isolated from human blood
C. albicans (R357) = assay: Disseminated infection model with C. albicans R357, kidney fungal counts; format: in vivo, ICR mice
[2] = system: Aspergillus fumigatus (ATCC 13073); assay: Neutropenic mouse model of aspergillosis, survival; format: in vivo, mice; settings: 2 mg/kg IP one dose; 10 days; P<0.05
C. auris isolates = assay: Candida auris antifungal susceptibility testing (AFST), CLSI M27-A3; format: cell-based
[3] = Solubility of test articles in vehicle, visual observation; settings: WFI; 2 mg/mL
Procedure: Amphotericin B and fluconazole were in powder form. Amphotericin B was dissolved in 0.9% NaCl. Fluconazole was dissolved in water (WFI: water for injection).

| Structure (SMILES) | Susceptibility (CLSI) ([1]; C. albicans R357) | Susceptibility of strain R357 in words [1] | Number of resistant C. auris isolates (C. auris isolates; of 38 isolates) | MIC ([1]; Candida albicans) [µg/mL] | further results |
| --- | --- | --- | --- | --- | --- |
| C[C@@H]1[C@H](O)[C@@H](C)/C=C/C=C/C=C/C=C/C=C/C=C/C=C/[C@H](O[C@@H]2O[C@H](C)[C@@H](O)[C@H](N)[C@@H]2O)C[C@@H]2O[C@](O)(C[C@@H](O)C[C@@H](O)[C@H](O)CC[C@@H](O)C[C@@H](O)CC(=O)O[C@H]1C)C[C@H](O)[C@H]2C(=O)O [Amphotericin B, amphotericin B] | S | susceptible |  |  | MIC ([1]; C. albicans R357, endpoint 100% inhibition): 0.5 µg/mL (≈ 0.541 µM); Reduction in fungal counts (C. albicans (R357); 3 mg/kg IV, 72 hr): two log reduction; Antimicrobial effect versus vehicle (kidney fungal counts) (C. albicans (R357); 1 and 3 mg/kg IV once, 48 and 72 hr after infection): Significant effects; Survival versus vehicle [2]: significantly longer survival than vehicle |
| CC[C@H](C)C[C@H](C)CCCCCCCCC(=O)N[C@H]1C[C@@H](O)[C@@H](NCCN)NC(=O)[C@@H]2[C@@H](O)CCN2C(=O)[C@H]([C@H](O)CCN)NC(=O)[C@H]([C@H](O)[C@@H](O)c2ccc(O)cc2)NC(=O)[C@@H]2C[C@@H](O)CN2C(=O)[C@H]([C@@H](C)O)NC1=O [Caspofungin, caspofungin] | S |  | 4 |  | MIC ([1]; Candida albicans, C. albicans R357, endpoint 50% inhibition, read-out: MIC): 0.25 µg/mL (≈ 0.229 µM); Breakthrough at 48 h (C. auris isolates; C. auris strains): most strains breakthrough |
| OC(Cn1cncn1)(Cn1cncn1)c1ccc(F)cc1F [Fluconazole, fluconazole] | R | resistant | 38 | > 64 | Reduction in colony counts compared to vehicle (C. albicans (R357); 20 mg/kg PO, 48 hr after infection): 51%; Reduction in colony counts compared to vehicle (C. albicans (R357); 20 mg/kg PO, 72 hr after infection): 84%; Statistical significance of reduction versus vehicle (C. albicans (R357); 20 mg/kg PO, one-way ANOVA, Dunnett's test (P>0.05)): not significant; Solubility [3]: S |
| CCCCCOc1ccc(-c2cc(-c3ccc(C(=O)N[C@H]4C[C@@H](O)[C@@H](O)NC(=O)[C@@H]5[C@@H](O)[C@@H](C)CN5C(=O)[C@H]([C@H](O)CC(N)=O)NC(=O)[C@H]([C@H](O)[C@@H](O)c5ccc(O)c(OS(=O)(=O)O)c5)NC(=O)[C@@H]5C[C@@H](O)CN5C(=O)[C@H]([C@@H](C)O)NC4=O)cc3)no2)cc1 [MICA, micafungin] (X1-[Orn(4R-OH,5R-OH)]T[Hyp][hTyr(3S-OH,4S-OH,3'-OSO3H)][Gln(3R-OH)][Pro(3S-OH,4S-Me)]; lactam 1-C) |  |  |  |  | Number of resistant C. auris isolates (C. auris isolates): 4 |
| CC[C@@H]([C@H](C)O)n1ncn(-c2ccc(N3CCN(c4ccc(OC[C@@H]5CO[C@@](Cn6cncn6)(c6ccc(F)cc6F)C5)cc4)CC3)cc2)c1=O [Posaconazole, posaconazole] |  | resistant |  | > 64 |  |
| C[C@@H](c1ncncc1F)[C@](O)(Cn1cncn1)c1ccc(F)cc1F [Voriconazole, voriconazole] | R | resistant |  | > 64 |  |
